Test results as given in patent US20120245108A1, “METHOD OF MODULATING COMPLEMENT FACTOR B (CFB) EXPRESSION IN CELLS” (KAOHSIUNG MEDICAL UNIVERSITY, priority 2011, published 2012).

How the values were obtained:
CFB mRNA = CFB mRNA expression in ARPE-19 cells by real-time RT-PCR; type: cell-based, human; settings: for UVB-induced CFB mRNA expression: 10 mJ/cm^2 UVB, 24 h, ARPE-19 cells, TA 25 μM, AG490 40 μM in 0.2% DMSO, normalized to GAPDH
Description: (§1) ARPE-19 (CRL-2302, human retinal pigment epithelial cells, American Type Culture Collection, Manassas, Va.) cells were cultured in 1:1 mixture of Dulbecco's modified Eagle's medium and HAM F-12 nutrient mixture supplemented with 10% fetal bovine serum at 37° C., 5% CO2, and 90% relative humidity. Confluent cells (90% confluence) were used throughout the experiments. Culture materials were obtained from Gibco-BRL (Rockville, Md.). Tannic acid, AG490 and all other reagents were obtained from Sigma Chemical Co. (St. Louis, Mo.).
(§2) The source of UVB radiation was performed using the EL series of UV lamp (UVP Inc., San Gabriel, Calif., USA). One hundred percent energy emission was at wavelength 302 nm with a radiation intensity of 1.04 mW/cm^2 in a lamp and a target distance of 15 cm was measured by a UVX Digital Radiometer (UVP Inc.).
The total RNA was isolated from ARPE-19 cells and cells exposed to UVB radiation (5-15 mJ/cm^2) for 24 hr using TRIzol Reagent (invitrogen). One μg of total RNA was subject to reverse transcriptase RT-PCR by using RT-PCR kit (Applied Biosystems). The primers used for detecting mRNA for IL-6 were 5′-CCTGCAAG ACCATCGACATG-3′ (forward, SEQ ID NO. 1) and 5′-[…]-3′ (reverse, SEQ ID NO. 2); CFB were 5′-[…]-3′ (forward, SEQ ID NO. 3) and 5′-[…]-3 (reverse, SEQ ID NO. 4); STAT3 were 5′-[…]-3′ (forward, SEQ ID NO. 5) and 5′-[…]-3′ (reverse, SEQ ID NO. 6); JAK2 were 5′-GCTCAGTGGCGGCATGAT-3′ (forward, SEQ ID NO. 7) and 5′-[…]-3′ (reverse, SEQ ID NO. 8); GAPDH were 5′-AACAGCGACACCCATCCTC-3′ (forward, SEQ ID NO. 9) and 5′-[…]-3′ (reverse, SEQ ID NO. 10). Real-time PCR was performed in a Gene Amp 7900® Sequence Detection System SDS (Applied Biosystems, Foster City, Calif., USA) using SYBR® Green PCR Master Mix Applied Biosystems. The relative gene expression is the comparative CT method. Each sample was normalized on the basis of its GAPDH content according to the formula 2^−ΔΔCT.

phospho-STAT3(Tyr705) = assay: Phospho-STAT3(Tyr705) immunoblotting in ARPE-19 cells; type: cell-based, human
Description: as §1, §2
Total cell lysates were resolved by 10% sodium dodecyl sulfate-polyacryl amide gel electrophoresis, transferred to membranes and blocked, and then probed phospho-STAT3(Tyr705) and STAT3 (Cell Signaling Technology, Danvers, Mass.) antibodies. To control for protein loading, all blots were probed with GAPDH (Millipore, Billerica, Mass.) as well. The bands were detected using the enhanced chemiluminescence system (Millipore, Billerica, Mass.).

JAK/STAT signaling = settings: Samardzija et al. 2006; cited from earlier work
IL-6 = IL-6 protein production in ARPE-19 cell culture supernatants by ELISA; type: cell-based, human; settings: TA 25 μM, 10 mJ/cm^2 UVB, 24 hours, ARPE-19 cells
Description: as §1, §2
ARPE-19 cells were plated about 200,000 cells in a 3-cm dish and cultured for 18-24 hours. Cells were exposed to UVB radiation for 24 hours, 1 ml aliquots of cell culture supernatants were drawn off and frozen at −80° C. ELISAs were carried out with the OptEIA human IL-6 ELISA kit (BD Pharmingen) according to the manufacturer's instructions. […] Freshly diluted rIL-6 which is useful as a standard control was used to generate a standard curve on each plate analyzed. Plates were read at 450 nm using a spectrophotometric plate reader. […]

SMILES	UVB-induced CFB mRNA expression (CFB mRNA)	STAT3 phosphorylation on Tyr705 (phospho-STAT3(Tyr705); AG490 40 μM, data not shown)	JAK/STAT signaling (JAK/STAT signaling)	retinal degeneration after bright light exposure (JAK/STAT signaling)	CFB expression without UV radiation (CFB mRNA; without UV radiation)	UVB-induced STAT3 phosphorylation on Tyr705 (phospho-STAT3(Tyr705); TA 25 μM, UVB, 24 hours, ARPE-19 (RPE) cells)	STAT3 phosphorylation without UV radiation (phospho-STAT3(Tyr705); without UV radiation)	attenuation of UVB-induced IL-6 protein production (IL-6)
N#C/C(=C/c1ccc(O)c(O)c1)C(=O)NCc1ccccc1 [AG490, reference compound]	partly attenuated	inhibit	inhibit	prevent	–	–	–	–
O=C(OC[C@H]1O[C@@H](OC(=O)c2cc(O)c(O)c(OC(=O)c3cc(O)c(O)c(O)c3)c2)[C@H](OC(=O)c2cc(O)c(O)c(OC(=O)c3cc(O)c(O)c(O)c3)c2)[C@@H](OC(=O)c2cc(O)c(O)c(OC(=O)c3cc(O)c(O)c(O)c3)c2)[C@@H]1OC(=O)c1cc(O)c(O)c(OC(=O)c2cc(O)c(O)c(O)c2)c1)c1cc(O)c(O)c(OC(=O)c2cc(O)c(O)c(O)c2)c1 [TA, Tannic acid]	attenuate	–	–	–	reduce	substantially attenuated	reduce	approximately 40%
